Data published in patent US20030166653A1, “Novel form of (r)-n-[5-methyl-8-(4-methylpiperazin-1-yl)-1,2,3,4-tetrahydro-2-naphthyl]-4-morpholinobenzamide” (priority 2003, published 2003).
Converted amounts (≈) assume the structure as drawn.

Assays:
Format in all cases: physicochemical
[1] = Stability of solution in 0.1 M HCl, pH 1.1, HPLC assay
Text: (§1) The stability of [5-Methyl-8-(4-methylpiperazin-1-yl)-1,2,3,4-tetrahydro-2-naphtyl]-4-morpholinobenzamide(=“Base” in tables below) and (R)-N-[5-methyl-8-(4-methylpiperazin-1-yl)-1,2,3,4-tetrahydro-2-naphtyl]-4-morpholinobenzamide monohydrobromide Form A (=“Form A” in tables below), as bulk drug substance and in solutions at different pH levels after exposure to daylight and at elevated temperatures, has been studied. Three solutions were made from each batch of drug substance. One solution in pure water, one in 0.1 mM HCl (pH 4.1) and one in 0.1 M HCl (pH 1.1). The content of [5-Methyl-8-(4-methylpiperazin-1-yl)-1,2,3,4-tetrahydro-2-naphtyl]-4-morpholinobenzamide (=Base) was determined by HPLC, all results are calculated as the base.

[2] = Stability of solution in 0.1 mM HCl, pH 4.1, HPLC assay
Text: as §1

[3] = Stability in water solutions (pH not adjusted), HPLC assay
Text: as §1

[4] = Solubility in water by HPLC-analysis; details: as the free base by HPLC-analysis
[5] = Stability of bulk drug substance (HPLC purity) in daylight and at 90° C.; details: for HPLC Purity (100% - related substances): bulk
Procedure: The stability of [5-Methyl-8-(4-methylpiperazin-1-yl)-1,2,3,4-tetrahydro-2-naphtyl]-4-morpholinobenzamide(=“Base” in tables below) and (R)-N-[5-methyl-8-(4-methylpiperazin-1-yl)-1,2,3,4-tetrahydro-2-naphtyl]-4-morpholinobenzamide monohydrobromide Form A (=“Form A” in tables below), as bulk drug substance and in solutions at different pH levels after exposure to daylight and at elevated temperatures, has been studied. The bulk substances are very stable, both in daylight and at 90° C. There are no significant differences between the HPLC purity of [5-Methyl-8-(4-methylpiperazin-1-yl)-1,2,3,4-tetrahydro-2-naphtyl]-4-morpholinobenzamide (=Base) and (R)-N-[5-methyl-8-(4-methylpiperazin-1-yl)-1,2,3,4-tetrahydro-2-naphtyl]-4-morpholinobenzamide monohydrobromide Form A (=Form A) at the tested conditions.

[6] = Water sorption by dynamic vapour sorption (DVS); details: solid state characterization; monohydrobromide
[7] = daylight RT, 14 days, % of start
[8] = daylight RT, 23 days, % of start

For `Cc1ccc(N2CCN(C)CC2)c2c1CCC(NC(=O)c1ccc(N3CCOCC3)cc1)C2` (centres unmarked) [Base, [5-Methyl-8-(4-methylpiperazin-1-yl)-1,2,3,4-tetrahydro-2-naphtyl]-4-morpholinobenzamide], the “Solution in 0.1 M HCl, pH 1.1, assay” value ([1]; 5° C., 8 days, % of start) was 99%, the “Solution in 0.1 M HCl, pH 1.1, assay” value ([1]; 5° C., 14 days, % of start) was 100% and the “Solution in 0.1 M HCl, pH 1.1, assay” value ([1]; 5° C., 23 days, % of start) was 97%. The “Solution in 0.1 M HCl, pH 1.1, assay” value ([1]; 5° C., Start) was 0.479 mg base/ml, the “Solution in 0.1 M HCl, pH 1.1, assay” value ([1]; 5° C., Start, % of start) was “(100%)” and the “Solution in 0.1 M HCl, pH 1.1, assay” value ([1]; 60° C., 2 days, % of start) was 98%. The “Solution in 0.1 M HCl, pH 1.1, assay” value ([1]; 60° C., 8 days, % of start) was 96%, the “Solution in 0.1 M HCl, pH 1.1, assay” value ([1]; 60° C., 14 days, % of start) was 91% and the “Solution in 0.1 M HCl, pH 1.1, assay” value ([1]; 60° C., 23 days, % of start) was 83%. The “Solution in 0.1 M HCl, pH 1.1, assay” value ([1]; 60° C., Start) was 0.479 mg base/ml, the “Solution in 0.1 M HCl, pH 1.1, assay” value ([1]; 60° C., Start, % of start) was “(100%)” and the “Solution in 0.1 M HCl, pH 1.1, assay” value ([1]; Dark RT, 8 days, % of start) was 100%. For the same compound, the “Solution in 0.1 M HCl, pH 1.1, assay” value ([1]; Dark RT, 14 days, % of start) was 100%, the “Solution in 0.1 M HCl, pH 1.1, assay” value ([1]; Dark RT, 23 days, % of start) was 98% and the “Solution in 0.1 M HCl, pH 1.1, assay” value ([1]; Dark RT, Start) was 0.479 mg base/ml. The “Solution in 0.1 M HCl, pH 1.1, assay” value ([1]; Dark RT, Start, % of start) was “(100%)”, the “Solution in 0.1 M HCl, pH 1.1, assay” value [1, 7] was 100% and the “Solution in 0.1 M HCl, pH 1.1, assay” value [1, 8] was 98%. For the same compound, the “Solution in 0.1 M HCl, pH 1.1, assay” value ([1]; daylight RT, Start) was 0.479 mg base/ml, the “Solution in 0.1 M HCl, pH 1.1, assay” value ([1]; daylight RT, Start, % of start) was “(100%)” and the “stability in solution, comparison in words” value ([1]; pH 1.1, 60° C.) was “less stable than Form A”. For the same compound, the “stability in solution in words” value ([1]; pH 1.1, except at 60° C.) was “good”, the “Solution in 0.1 mM HCl, pH 4.1, assay” value ([2]; 5° C., 8 days, % of start) was 100% and the “Solution in 0.1 mM HCl, pH 4.1, assay” value ([2]; 5° C., 14 days, % of start) was 99%. For the same compound, the “Solution in 0.1 mM HCl, pH 4.1, assay” value ([2]; 5° C., 23 days, % of start) was 99%, the “Solution in 0.1 mM HCl, pH 4.1, assay” value ([2]; 5° C., Start) was 0.0443 mg base/ml and the “Solution in 0.1 mM HCl, pH 4.1, assay” value ([2]; 5° C., Start, % of start) was “(100%)”. The “Solution in 0.1 mM HCl, pH 4.1, assay” value ([2]; 60° C., 2 days, % of start) was 96%, the “Solution in 0.1 mM HCl, pH 4.1, assay” value ([2]; 60° C., 8 days, % of start) was 93% and the “Solution in 0.1 mM HCl, pH 4.1, assay” value ([2]; 60° C., 14 days, % of start) was 67%. For the same compound, the “Solution in 0.1 mM HCl, pH 4.1, assay” value ([2]; 60° C., 23 days, % of start) was 57%, the “Solution in 0.1 mM HCl, pH 4.1, assay” value ([2]; 60° C., Start) was 0.0443 mg base/ml and the “Solution in 0.1 mM HCl, pH 4.1, assay” value ([2]; 60° C., Start, % of start) was “(100%)”. For the same compound, the “Solution in 0.1 mM HCl, pH 4.1, assay” value ([2]; Dark RT, 8 days, % of start) was 99%, the “Solution in 0.1 mM HCl, pH 4.1, assay” value ([2]; Dark RT, 14 days, % of start) was 98% and the “Solution in 0.1 mM HCl, pH 4.1, assay” value ([2]; Dark RT, 23 days, % of start) was 97%. The “Solution in 0.1 mM HCl, pH 4.1, assay” value ([2]; Dark RT, Start) was 0.0443 mg base/ml, the “Solution in 0.1 mM HCl, pH 4.1, assay” value ([2]; Dark RT, Start, % of start) was “(100%)” and the “Solution in 0.1 mM HCl, pH 4.1, assay” value [2, 7] was 98%. The “Solution in 0.1 mM HCl, pH 4.1, assay” value [2, 8] was 98%, the “Solution in 0.1 mM HCl, pH 4.1, assay” value ([2]; daylight RT, Start) was 0.0443 mg base/ml and the “Solution in 0.1 mM HCl, pH 4.1, assay” value ([2]; daylight RT, Start, % of start) was “(100%)”. For the same compound, the “stability in solution, comparison in words” value ([2]; pH 4.1, 60° C. (more pronounced than at pH 1.1)) was “less stable than Form A”, the “stability in solution in words” value ([2]; pH 4.1, except at 60° C.) was “good” and the “Stability in water solutions, assay” value ([3]; 5° C., 8 days, % of start) was 101%. For the same compound, the “Stability in water solutions, assay” value ([3]; 5° C., 14 days, % of start) was 101%, the “Stability in water solutions, assay” value ([3]; 5° C., 23 days, % of start) was 102% and the “Stability in water solutions, assay” value ([3]; 5° C., Start) was 0.00698 mg base/ml. For the same compound, the “Stability in water solutions, assay” value ([3]; 5° C., Start, % of start) was “(100%)”, the “Stability in water solutions, assay” value ([3]; 60° C., 2 days, % of start) was 105% and the “Stability in water solutions, assay” value ([3]; 60° C., 8 days, % of start) was 104%. For the same compound, the “Stability in water solutions, assay” value ([3]; 60° C., 14 days, % of start) was 106%, the “Stability in water solutions, assay” value ([3]; 60° C., 23 days, % of start) was 102% and the “Stability in water solutions, assay” value ([3]; 60° C., Start) was 0.00698 mg base/ml. For the same compound, the “Stability in water solutions, assay” value ([3]; 60° C., Start, % of start) was “(100%)”, the “Stability in water solutions, assay” value ([3]; Dark RT, 8 days, % of start) was 94% and the “Stability in water solutions, assay” value ([3]; Dark RT, 14 days, % of start) was 94%. The “Stability in water solutions, assay” value ([3]; Dark RT, 23 days, % of start) was 95%, the “Stability in water solutions, assay” value ([3]; Dark RT, Start) was 0.00698 mg base/ml and the “Stability in water solutions, assay” value ([3]; Dark RT, Start, % of start) was “(100%)”. The “Stability in water solutions, assay” value ([3]; daylight RT, 8 days, % of start) was 95%, the “Stability in water solutions, assay” value [3, 7] was 94% and the “Stability in water solutions, assay” value [3, 8] was 91%. For the same compound, the “Stability in water solutions, assay” value ([3]; daylight RT, Start) was 0.00698 mg base/ml, the “Stability in water solutions, assay” value ([3]; daylight RT, Start, % of start) was “(100%)” and the “stability in pure water solution, comparison in words” value ([3]; room temperature, pH not adjusted) was “less stable than Form A”. The solubility in water [4] was 0.034 mg/mL (≈ 75.8 µM), the “HPLC Purity (100% - related substances)” value ([5]; 90° C., 2 days) was 99.9% and the “HPLC Purity (100% - related substances)” value ([5]; 90° C., 8 days) was 99.9%. For the same compound, the “HPLC Purity (100% - related substances)” value ([5]; 90° C., 14 days) was 99.9%, the “HPLC Purity (100% - related substances)” value ([5]; 90° C., 21 days) was 99.9% and the “HPLC Purity (100% - related substances)” value ([5]; 90° C., 30 days) was 99.9%. For the same compound, the “HPLC Purity (100% - related substances)” value ([5]; 90° C., Start) was 100%, the “HPLC Purity (100% - related substances)” value ([5]; daylight, RT, 8 days) was 99.9% and the “HPLC Purity (100% - related substances)” value ([5]; daylight, RT, 14 days) was 99.9%. For the same compound, the “HPLC Purity (100% - related substances)” value ([5]; daylight, RT, 21 days) was 99.9%, the “HPLC Purity (100% - related substances)” value ([5]; daylight, RT, 30 days) was 99.9% and the “HPLC Purity (100% - related substances)” value ([5]; daylight, RT, Start) was 100%. For the same compound, the “stability of bulk substance in words” value ([5]; in daylight and at 90° C.) was “very stable”.

For `Br.Cc1ccc(N2CCN(C)CC2)c2c1CC[C@@H](NC(=O)c1ccc(N3CCOCC3)cc1)C2` [Form B, (R)-N-[5-methyl-8-(4-methylpiperazin-1-yl)-1,2,3,4-tetrahydro-2-naphtyl]-4-morpholinobenzamide monohydrobromide], the “hygroscopicity / water uptake in words” value [6] was “readily resorbs water again”.
